The values below come from ChEMBL document CHEMBL3045151, “Long-term pre-exposure of the pest mite Tyrophagus putrescentiae to sub-lethal residues of bifenthrin on rapeseed did not affect its susceptibility to bifenthrin” (2011).

In assay [1] the test system is Tyrophagus putrescentiae. The assay is described as follows: Insecticidal activity against Tyrophagus putrescentiae from compound treated origin in compound treated rapeseed assessed as respiration ppm of co2 per gram of mite fresh weight per hr at sub-lethal concentration at 25 degC, 85% RH measured after 147 days. In kind it is functional.
The test system of assay [2] is Tyrophagus putrescentiae. The assay is described as follows: Insecticidal activity against Tyrophagus putrescentiae from control origin in compound treated rapeseed assessed as respiration ppm of co2 at sub-lethal concentration at 25 degC, 85% RH measured after 147 days. In kind it is functional.
The subject of assay [3] is Tyrophagus putrescentiae. The assay is described as follows: Insecticidal activity against Tyrophagus putrescentiae from compound treated origin in compound treated rapeseed assessed as increase in population rate at sub-lethal concentration at 25 degC, 85% RH measured after 147 days. It counts as functional, organism-based.
Assay [4] concerns Tyrophagus putrescentiae. The assay is described as follows: Insecticidal activity against Tyrophagus putrescentiae from control origin in compound treated rapeseed assessed as increase in population rate at sub-lethal concentration at 25 degC, 85% RH measured after 147 days. In kind it is functional, organism-based.
Assay [5] relates to Tyrophagus putrescentiae. The assay is described as follows: Insecticidal activity against Tyrophagus putrescentiae in compound treated rapeseed assessed as decrease in population measured after 21 days. In kind it is functional.
The test system of assay [6] is Tyrophagus putrescentiae. The assay is described as follows: Insecticidal activity against Tyrophagus putrescentiae in compound treated rapeseed assessed as decrease in population at 0.15 to 150 ug/100 g of rapeseed measured after 21 days. It counts as functional, organism-based.
Assay [7] relates to Tyrophagus putrescentiae. The assay is described as follows: Insecticidal activity against Tyrophagus putrescentiae in compound treated rapeseed assessed as mortality after 147 days (reference value: 2.4 ug/cm'2). It counts as functional.
The test system of assay [8] is Tyrophagus putrescentiae. The assay is described as follows: Insecticidal activity against Tyrophagus putrescentiae in compound treated rapeseed assessed as mortality (LD95) after 126 days (reference value: 2.4 ug/cm'2). It counts as functional.
Assay [9] relates to Tyrophagus putrescentiae. The assay is described as follows: Insecticidal activity against Tyrophagus putrescentiae in compound treated rapeseed assessed as mortality (LD95) after 105 days (reference value: 2.4 ug/cm'2). It counts as functional.
The test system of assay [10] is Tyrophagus putrescentiae. The assay is described as follows: Insecticidal activity against Tyrophagus putrescentiae in compound treated rapeseed assessed as mortality (LD95) after 84 days (reference value: 2.4 ug/cm'2). In kind it is functional.
Assay [11] relates to Tyrophagus putrescentiae. The assay is described as follows: Insecticidal activity against Tyrophagus putrescentiae in compound treated rapeseed assessed as mortality (LD95) after 63 days (reference value: 2.4 ug/cm'2). It counts as functional.
The test system of assay [12] is Tyrophagus putrescentiae. The assay is described as follows: Insecticidal activity against Tyrophagus putrescentiae in compound treated rapeseed assessed as mortality (LD95) after 42 days (reference value: 2.4 ug/cm'2). In kind it is functional.
Assay [13] concerns Tyrophagus putrescentiae. The assay is described as follows: Insecticidal activity against Tyrophagus putrescentiae in compound treated rapeseed assessed as mortality (LD95) after 21 days (reference value: 2.4 ug/cm'2). It counts as functional.
Assay [14] concerns Tyrophagus putrescentiae. The assay is described as follows: Insecticidal activity against Tyrophagus putrescentiae in compound treated rapeseed assessed as mortality (LD50) after 147 days (reference value: 0.78 ug/cm'2). In kind it is functional.
The test system of assay [15] is Tyrophagus putrescentiae. The assay is described as follows: Insecticidal activity against Tyrophagus putrescentiae in compound treated rapeseed assessed as mortality (LD50) after 126 days (reference value: 0.78 ug/cm'2). In kind it is functional.
Assay [16] relates to Tyrophagus putrescentiae. The assay is described as follows: Insecticidal activity against Tyrophagus putrescentiae in compound treated rapeseed assessed as mortality (LD50) after 105 days (reference value: 0.78 ug/cm'2). It counts as functional.
In assay [17] the test system is Tyrophagus putrescentiae. The assay is described as follows: Insecticidal activity against Tyrophagus putrescentiae in compound treated rapeseed assessed as mortality (LD50) after 84 days (reference value: 0.78 ug/cm'2). In kind it is functional.
Assay [18] deals with Tyrophagus putrescentiae. The assay is described as follows: Insecticidal activity against Tyrophagus putrescentiae in compound treated rapeseed assessed as mortality (LD50) after 63 days (reference value: 0.78 ug/cm'2). In kind it is functional.
Assay [19] deals with Tyrophagus putrescentiae. The assay is described as follows: Insecticidal activity against Tyrophagus putrescentiae in compound treated rapeseed assessed as mortality (LD50) after 42 days (reference value: 0.78 ug/cm'2). It counts as functional.
The subject of assay [20] is Tyrophagus putrescentiae. The assay is described as follows: Insecticidal activity against Tyrophagus putrescentiae in compound treated rapeseed assessed as mortality (LD50) after 21 days (reference value: 0.78 ug/cm'2). It counts as functional.

Calls of active or inactive are those of the source. The calls are words filed in the database; no cut-off is given here.

In the case of `Cc1c(COC(=O)[C@@H]2[C@H](/C=C(\Cl)C(F)(F)F)C2(C)C)cccc1-c1ccccc1` [BIFENTHRIN], the Activity in assay [1] is on record as 745 ppm/g/hr; in assay [2] it was 896 ppm/g/hr. Besides, the outcome in [3] and in [4] was inactive. Moreover, the ED50 in [5] came to 2.7 µg. Moreover, the result in [6] was Active. Moreover, the LD95 in [7] is 1.8 microg/cm2; in assay [8], 1.6 microg/cm2; in assay [9], 2.9 microg/cm2; in assay [10], 2.3 microg/cm2; in [11] it was 2 microg/cm2; in assay [12] it was 2.4 microg/cm2. Besides, the LD95 in assay [13] amounted to 1.6 microg/cm2. For the same compound, the LD50 in assay [14] was found to be 0.16 microg/cm2; in [15] it was 0.44 microg/cm2; in [16], 1.14 microg/cm2; in assay [17], 0.46 microg/cm2; in assay [18], 0.24 microg/cm2; in assay [19], 0.65 microg/cm2. The LD50 in assay [20] was 0.44 microg/cm2.
